Measurements as given in US12404269B2, “Aminoquinazolinone and aminoisoquinolinone derivatives and application thereof” (ZHEJIANG UNIVERSITY, priority 2018, dated 2025).
Like-named read-outs stand apart in the source and are kept apart here.

Tests used:
[1] = target: T1, PI3Kδ (Homo sapiens, UniProt O00329); assay: PI3Kδ molecular activity test (ADP-GLO); type: biochemical; conditions: recombinant protein
T1 construct: purchased Carna Bioscience
Protocol: (§1) Instrument: ELISA Reader Envision™ (PerkinElmer, USA)
(§2) Materials: Human recombinant PI3K and PI3Kδ proteins, purchased from Carna Bioscience; ADP-GLO kit, purchased from Promega.
(§3) Take the PI3Kα Molecular Activity Test as an Example to Describe the Text Method of the PI3K Subtypes
(§4) PI3K-α recombinant protein and substrate ATP were diluted with kinase reaction buffer (50 mM Tris-HCl, pH 7.4, 2.1 mM DTT, 0.05% Tween-20, 10 mM MgCl2). […] The specific reaction system was 2% of DMSO, 0.8 ng/μL PI3K-α, and 100 μM ATP, the positive compound control groups and control wells were set, and there were 3 multiple-wells for each concentration of each sample. After incubating for 2 hours at room temperature, ADP-GLO Reagent and Kinase Detection Reagent were added respectively, and then Envision™ was used to detect the […] readings. The activity rate of the samples were calculated by the sample readings, and the calculation formula was: activity rate=(ODcompound−ODcontrol)/(ODDMSO−ODcontro) ×100%.

[2] = system: SW48 (PIK3CA mut); assay: Tumor cell proliferation, CCK8 method, SW48; type: cell-based; conditions: CCK8, SW48, read-out: SW48 (PIK3CA mut) proliferation IC50
Protocol: (§5) The IC50 value was calculated using Graphpad Prism V5.0 software.

[3] = target: T2, PI3Kα (Homo sapiens, UniProt P42336); assay: PI3Kα molecular activity test (ADP-GLO); type: biochemical; conditions: for Selectivity (PI3Kδ IC50/PI3KαIC50): PI3Kδ IC50/PI3Kα IC50; for IC50: recombinant protein, 100 μM ATP, 2 hours at room temperature
T2 construct: purchased Carna Bioscience
T2 sequence (P42336 whole entry): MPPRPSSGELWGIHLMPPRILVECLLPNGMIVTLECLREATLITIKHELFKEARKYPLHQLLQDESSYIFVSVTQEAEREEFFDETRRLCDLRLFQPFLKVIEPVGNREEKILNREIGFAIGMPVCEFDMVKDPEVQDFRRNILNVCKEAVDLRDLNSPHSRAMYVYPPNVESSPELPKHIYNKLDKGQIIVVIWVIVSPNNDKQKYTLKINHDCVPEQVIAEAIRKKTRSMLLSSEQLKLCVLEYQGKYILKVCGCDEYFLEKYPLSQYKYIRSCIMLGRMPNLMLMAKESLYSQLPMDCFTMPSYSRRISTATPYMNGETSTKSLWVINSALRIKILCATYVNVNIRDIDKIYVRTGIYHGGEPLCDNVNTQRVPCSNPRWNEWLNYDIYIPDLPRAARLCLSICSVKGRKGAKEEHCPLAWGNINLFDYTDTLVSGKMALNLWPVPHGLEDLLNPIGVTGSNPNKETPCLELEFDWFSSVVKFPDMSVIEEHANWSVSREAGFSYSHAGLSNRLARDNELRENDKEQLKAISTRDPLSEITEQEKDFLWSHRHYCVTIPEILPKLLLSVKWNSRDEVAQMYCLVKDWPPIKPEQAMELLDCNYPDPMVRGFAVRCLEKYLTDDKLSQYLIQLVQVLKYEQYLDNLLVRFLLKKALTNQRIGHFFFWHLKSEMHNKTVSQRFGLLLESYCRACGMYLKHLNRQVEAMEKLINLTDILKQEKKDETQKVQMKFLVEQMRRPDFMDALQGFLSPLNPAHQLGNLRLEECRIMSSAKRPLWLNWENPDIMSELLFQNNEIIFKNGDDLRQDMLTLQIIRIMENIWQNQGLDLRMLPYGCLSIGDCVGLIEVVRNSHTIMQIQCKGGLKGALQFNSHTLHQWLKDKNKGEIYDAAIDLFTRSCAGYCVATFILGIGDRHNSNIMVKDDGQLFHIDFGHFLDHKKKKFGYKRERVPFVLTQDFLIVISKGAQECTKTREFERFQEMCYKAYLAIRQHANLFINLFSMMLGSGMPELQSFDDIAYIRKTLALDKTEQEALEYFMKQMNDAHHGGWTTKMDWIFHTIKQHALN
T2 sequence (P27986 whole entry partner): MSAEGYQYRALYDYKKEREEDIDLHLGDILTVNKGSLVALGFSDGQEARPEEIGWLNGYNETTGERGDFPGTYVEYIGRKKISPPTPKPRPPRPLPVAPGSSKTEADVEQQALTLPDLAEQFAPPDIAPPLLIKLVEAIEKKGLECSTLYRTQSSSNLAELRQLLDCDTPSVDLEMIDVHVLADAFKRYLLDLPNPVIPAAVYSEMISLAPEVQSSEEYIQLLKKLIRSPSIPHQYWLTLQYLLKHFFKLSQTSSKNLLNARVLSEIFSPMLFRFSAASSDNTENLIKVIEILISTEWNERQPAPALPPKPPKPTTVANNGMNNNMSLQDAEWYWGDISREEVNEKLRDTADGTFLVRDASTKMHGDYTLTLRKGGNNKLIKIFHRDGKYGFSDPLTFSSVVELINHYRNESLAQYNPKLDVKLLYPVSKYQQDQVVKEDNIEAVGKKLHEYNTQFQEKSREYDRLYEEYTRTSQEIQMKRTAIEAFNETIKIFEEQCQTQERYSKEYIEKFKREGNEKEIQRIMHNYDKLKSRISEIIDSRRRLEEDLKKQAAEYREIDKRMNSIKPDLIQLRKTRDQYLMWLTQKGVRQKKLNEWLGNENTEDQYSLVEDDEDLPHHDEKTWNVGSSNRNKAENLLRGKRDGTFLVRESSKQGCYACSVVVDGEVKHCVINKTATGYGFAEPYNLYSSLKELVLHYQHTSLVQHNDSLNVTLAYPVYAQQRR
Protocol: as §1, §2, §3, §4

[4] = system: ZR-75-1 (PTEN loss); assay: Tumor cell proliferation, CCK8 method, ZR-75-1; type: cell-based; conditions: CCK8, ZR-75-1
Protocol: as §5

[5] = system: MCF7 (PIK3CA mut); assay: Tumor cell proliferation, CCK8 method, MCF7; type: cell-based, human; conditions: CCK8, MCF7, read-out: MCF7 (PIK3CA mut) proliferation IC50
Protocol: as §5

[6] = system: KPL4 (PIK3CA mut); assay: Tumor cell proliferation, CCK8 method, KPL4; type: cell-based; conditions: CCK8, KPL4; read-out: KPL4 (PIK3CA mut) proliferation IC50
Protocol: as §5

T1 sequence (O00329 whole entry): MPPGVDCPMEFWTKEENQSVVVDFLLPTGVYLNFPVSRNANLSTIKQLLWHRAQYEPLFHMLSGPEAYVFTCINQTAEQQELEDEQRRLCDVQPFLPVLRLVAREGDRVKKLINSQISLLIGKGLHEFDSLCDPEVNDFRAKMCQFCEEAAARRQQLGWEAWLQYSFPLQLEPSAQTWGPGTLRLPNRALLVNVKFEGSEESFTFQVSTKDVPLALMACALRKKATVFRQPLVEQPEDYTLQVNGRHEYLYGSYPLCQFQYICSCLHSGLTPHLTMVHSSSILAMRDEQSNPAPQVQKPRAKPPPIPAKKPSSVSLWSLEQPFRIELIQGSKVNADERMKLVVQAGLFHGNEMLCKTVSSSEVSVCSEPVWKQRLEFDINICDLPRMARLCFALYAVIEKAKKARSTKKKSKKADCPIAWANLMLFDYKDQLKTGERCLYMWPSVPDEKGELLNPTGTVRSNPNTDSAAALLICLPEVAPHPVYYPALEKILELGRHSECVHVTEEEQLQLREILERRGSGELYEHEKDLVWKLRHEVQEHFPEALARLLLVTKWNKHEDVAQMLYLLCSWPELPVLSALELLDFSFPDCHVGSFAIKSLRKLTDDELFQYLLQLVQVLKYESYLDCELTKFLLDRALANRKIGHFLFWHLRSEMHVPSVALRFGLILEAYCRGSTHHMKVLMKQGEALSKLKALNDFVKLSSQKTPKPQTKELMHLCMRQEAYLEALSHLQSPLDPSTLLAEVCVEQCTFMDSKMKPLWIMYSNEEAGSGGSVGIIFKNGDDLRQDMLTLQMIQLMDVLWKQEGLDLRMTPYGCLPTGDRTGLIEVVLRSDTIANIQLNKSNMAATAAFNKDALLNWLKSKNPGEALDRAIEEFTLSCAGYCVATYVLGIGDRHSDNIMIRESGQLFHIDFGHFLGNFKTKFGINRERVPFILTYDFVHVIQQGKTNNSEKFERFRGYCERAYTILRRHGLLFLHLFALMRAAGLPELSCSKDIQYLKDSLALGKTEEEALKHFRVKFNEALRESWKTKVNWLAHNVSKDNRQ
T1 sequence (P27986 whole entry partner): as the sequence (P27986 whole entry partner) above

Compound | IC50 [1] [nM] | IC50 ([2]; Homo sapiens) [nM] | Selectivity (PI3Kδ IC50/PI3KαIC50) [3] | IC50 [3] [nM] | IC50 ([4]; Homo sapiens) [nM] | IC50 ([5]; Homo sapiens) [nM] | IC50 [6] [nM] | IC50 [2] [nM] | IC50 [4] [nM] | IC50 [5] [nM]
COc1c(OCCNS(C)(=O)=O)ccc2c(=O)n(C)c(NC(=O)c3ccc(N)nc3)nc12 [8a-40, 6-amino-N-(8-methoxy-3-methyl-7-(2-(methylsulfonamido)ethoxy)-4-oxo-3,4-dihydroquinazoline-2-yl) nicotinamide] | 20 to 200 | 20 to 200 | II (“II” represents 5-10 times) | < 20 | 200 to 1000 | < 20 | 20 to 200 |  |  | 
CCn1c(NC(=O)c2cnc(N)nc2)nc2c(OC)c(OCC(N)=O)ccc2c1=O [8b-2] | 20 to 200 | 20 to 200 | III (“III” represents >10 times) | < 20 | 20 to 200 | < 20 | 20 to 200 |  |  | 
CCn1c(NC(=O)c2cnc(N)nc2)nc2c(OC)c(OCCS(N)(=O)=O)ccc2c1=O [8b-11] | < 20 | 20 to 200 | II (“II” represents 5-10 times) | < 20 | 20 to 200 | < 20 | < 20 |  |  | 
CCn1c(NC(=O)c2cnc(N)nc2)nc2c(OC)c(OC[C@@H](O)CN3CCOCC3)ccc2c1=O [8b-27, (S)-2-amino-N-(3-ethyl-7-(2-hydroxy-3-morpholinopropoxy)-8-methoxy-4-oxo-3,4-dihydroquinazolin-2-yl) pyrimidine-5-carboxamide] | 200 to 1000 | 20 to 200 | II (“II” represents 5-10 times) | < 20 | 200 to 1000 | < 20 | 20 to 200 |  |  | 
CCn1c(NC(=O)c2cnc(N)nc2)nc2c(OC)c(OC[C@H](O)CN3CCOCC3)ccc2c1=O [8b-28, (R)-2-amino-N-(3-ethyl-7-(2-hydroxy-3-morpholinopropoxy)-8-methoxy-4-oxo-3,4-dihydroquinazolin-2-yl) pyrimidine-5-carboxamide] | 200 to 1000 | 20 to 200 | II (“II” represents 5-10 times) | < 20 | 200 to 1000 | < 20 | 20 to 200 |  |  | 
CCn1c(NC(=O)c2cnc(N)nc2)nc2c(OC)c(OCCNS(C)(=O)=O)ccc2c1=O [8b-29, 2-amino-N-(3-ethyl-8-methoxy-7-(2-(methylsulfonamido)ethoxy)-4-oxo-3,4-dihydroquinazolin-2-yl) pyrimidine-5-carboxamide] | 200 to 1000 | 20 to 200 | III (“III” represents >10 times) | < 20 | 200 to 1000 | < 20 | 20 to 200 |  |  | 
CCn1c(NC(=O)c2cnc(N)nc2)nc2c(OC)c(OCC(C)NS(C)(=O)=O)ccc2c1=O (stereo not shown) [8b-30, 2-amino-N-(3-ethyl-8-methoxy-7-(2-(methylsulfonamido)propoxy)-4-oxo-3,4-dihydroquinazolin-2-yl) pyrimidine-5-carboxamide] | 200 to 1000 |  | II (“II” represents 5-10 times) | < 20 |  |  | 20 to 200 | 20 to 200 | 200 to 1000 | < 20
CCn1c(NC(=O)c2ccc(N)nc2)nc2c(OC)c(OC[C@@H](O)CN3CCOCC3)ccc2c1=O [8b-46, (S)-6-amino-N-(3-ethyl-7-(2-hydroxy-3-morpholinopropoxy)-8-methoxy-4-oxo-3,4-dihydroquinazolin-2-yl) nicotinamide] | 200 to 1000 | 20 to 200 | II (“II” represents 5-10 times) | < 20 | 200 to 1000 | < 20 | 20 to 200 |  |  | 
CCn1c(NC(=O)c2ccc(N)nc2)nc2c(OC)c(OC[C@H](O)CN3CCOCC3)ccc2c1=O [8b-47, (R)-6-amino-N-(3-ethyl-7-(2-hydroxy-3-morpholinopropoxy)-8-methoxy-4-oxo-3,4-dihydroquinazolin-2-yl) nicotinamide] | 200 to 1000 | 20 to 200 | II (“II” represents 5-10 times) | < 20 | 200 to 1000 | < 20 | 20 to 200 |  |  | 
CCn1c(NC(=O)c2ccc(N)nc2)nc2c(OC)c(OCC(=O)NCCN3CCOCC3)ccc2c1=O [8b-48, 6-amino-N-(3-ethyl-8-methoxy-7-(2-((2-morpholinoethyl)amino)-2-oxoethoxy)-4-oxo-3,4-dihydroquinazolin-2-yl)nicotinamide] | 200 to 1000 | 20 to 200 | II (“II” represents 5-10 times) | < 20 | 200 to 1000 | < 20 | 20 to 200 |  |  | 
CCn1c(NC(=O)c2cnc(N)nc2)cc2c(OC)c(OCCCN3CCOCC3)ccc2c1=O [8b′-1] | < 20 | 20 to 200 | I (“I” represents <5 times) | < 20 | 20 to 200 | < 20 | 20 to 200 |  |  | 
CCn1c(NC(=O)c2cnc(N)nc2)cc2c(OC)c(OCC(N)=O)ccc2c1=O [8b′-2] | 20 to 200 | 20 to 200 | III (“III” represents >10 times) | < 20 | 20 to 200 | < 20 | 20 to 200 |  |  | 
Cn1c(NC(=O)c2cnc(N)nc2)nc2c3c(ccc2c1=O)OCCCCO3 [14a-4] | < 20 | 200 to 1000 | I (“I” represents <5 times) | < 20 | 200 to 1000 | 20 to 200 | 200 to 1000 |  |  | 
Cn1c(NC(=O)c2cnc(N)nc2)nc2c3c(ccc2c1=O)OCCCCCO3 [14a-5] | 20 to 200 | 200 to 1000 | II (“II” represents 5-10 times) | < 20 | 200 to 1000 | 20 to 200 | 200 to 1000 |  |  | 
Cn1c(NC(=O)c2cnc(N)nc2)nc2c3c(ccc2c1=O)OCCCCCCO3 [14a-6] | 20 to 200 | 200 to 1000 | II (“II” represents 5-10 times) | < 20 | 200 to 1000 | 20 to 200 | 200 to 1000 |  |  | 
Cn1c(NC(=O)c2cnc(N)nc2)nc2c3c(ccc2c1=O)OCCCCCCCO3 [14a-7] | 20 to 200 | 200 to 1000 | II (“II” represents 5-10 times) | < 20 | 200 to 1000 | 20 to 200 | 200 to 1000 |  |  | 
Cn1c(NC(=O)c2cnc(N)nc2)nc2c3c(ccc2c1=O)OCCCCCCCCO3 [14a-8] | < 20 | 20 to 200 | I (“I” represents <5 times) | < 20 | 20 to 200 | < 20 | 20 to 200 |  |  | 
CCn1c(NC(=O)c2cnc(N)nc2)nc2c3c(ccc2c1=O)OCCCCO3 [14b-4] | 20 to 200 | 200 to 1000 | I (“I” represents <5 times) | 20 to 200 | 200 to 1000 | < 20 | 20 to 200 |  |  | 
CCn1c(NC(=O)c2cnc(N)nc2)nc2c3c(ccc2c1=O)OCCCCCCCCO3 [14b-8] | < 20 | 200 to 1000 | I (“I” represents <5 times) | < 20 | 200 to 1000 | < 20 | 20 to 200 |  |  | 
